Several values for one entry are separate records, joined by “and”; a condition that tells them apart may be missing. Equal entries are not always repeated. Inconclusive results and toxic doses are left out.

The assay concerns L1210 leukemia ip in BDF1 mice, survival T/C. The experiment in a line: NCI In Vivo Anticancer Drug Screen. Data for tumor model L1210 Leukemia (intraperitoneal) in B6D2F1 (BDF1) mice. The settings on record: endpoint: mean survival time, higher = longer survival. In short, it runs like this: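 Read-out is survival time, reported as the treated-group measurement over the vehicle-control measurement.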

The mark [1] stands for this setting: dose: 25.0 mg/kg/injection, schedule: Q04DX003 (ip), vehicle: saline.
The mark [2] stands for this setting: dose: 100.0 mg/kg/injection, schedule: Q01DX009 (ip), vehicle: Klucel (hydroxypropylcellulose) (HPC).
The mark [3] stands for this setting: dose: 200.0 mg/kg/injection, schedule: Q01DX009 (ip), vehicle: Klucel (hydroxypropylcellulose) (HPC).
Setting [4] is: dose: 400.0 mg/kg/injection, schedule: Q01DX009 (ip), vehicle: Klucel (hydroxypropylcellulose) (HPC).
[5] abbreviates: dose: 25.0 mg/kg/injection, schedule: Q01DX009 (ip), vehicle: Klucel (hydroxypropylcellulose) (HPC).
[6] abbreviates: dose: 50.0 mg/kg/injection, schedule: Q01DX009 (ip), vehicle: Klucel (hydroxypropylcellulose) (HPC).
Setting [7] is: dose: 50.0 mg/kg/injection, schedule: Q04DX003 (ip), vehicle: Klucel (hydroxypropylcellulose) (HPC).
[8] abbreviates: dose: 100.0 mg/kg/injection, schedule: Q04DX003 (ip), vehicle: Klucel (hydroxypropylcellulose) (HPC).
The mark [9] stands for this setting: dose: 100.0 mg/kg/injection, schedule: Q01DX001 (ip), vehicle: saline.
Setting [10] is: dose: 100.0 mg/kg/injection, schedule: Q01DX001 (ip), vehicle: Klucel (hydroxypropylcellulose) (HPC).
The mark [11] stands for this setting: dose: 200.0 mg/kg/injection, schedule: Q01DX001 (ip), vehicle: Klucel (hydroxypropylcellulose) (HPC).
Setting [12] is: dose: 400.0 mg/kg/injection, schedule: Q01DX001 (ip), vehicle: Klucel (hydroxypropylcellulose) (HPC).

Regarding `ClCC(Cl)C1CCC(Cl)C(Cl)C1` (stereo not drawn), the T/C runs as follows: (dose: 50.0 mg/kg/injection, schedule: Q01DX009 (ip), vehicle: other) 95 % of control; (dose: 100.0 mg/kg/injection, schedule: Q01DX009 (ip), vehicle: other) 90 % of control; (dose: 200.0 mg/kg/injection, schedule: Q01DX009 (ip), vehicle: other) 90 % of control.
As to `CCCCCCCCCCOC(=O)C[n+]1ccc(C(N)=O)cc1`, the T/C runs as follows: (dose: 12.5 mg/kg/injection, schedule: Q04DX003 (ip), vehicle: saline) 98 % of control; under setting [1], 91 % of control; (dose: 50.0 mg/kg/injection, schedule: Q04DX003 (ip), vehicle: saline) 91 % of control.
With `Cc1c(Cl)c(Cl)c(NS(=O)(=O)c2ccccc2)c(NS(=O)(=O)c2ccccc2)c1Cl`, the T/C was 95 % of control under setting [2], 103 % of control under setting [3] and 100 % of control under setting [4].
Take `Nc1nc(=S)c2[nH]c(N=Nc3ccc(S(=O)(=O)O)cc3)nc2[nH]1`: the T/C is, setting by setting: under setting [5], 100 % of control; under setting [6], 102 % of control; under setting [7], 114 % of control; under setting [2], 102 % of control; under setting [8], 153 % of control.
As to `O=C(c1ccccc1)c1c2ccccc2c(C(=O)c2ccccc2)c2ccccc12`, the T/C reads like this: under setting [2], 104 % of control; under setting [8], 103 % of control; under setting [3], 97 % of control; (dose: 200.0 mg/kg/injection, schedule: Q04DX003 (ip), vehicle: Klucel (hydroxypropylcellulose) (HPC)) 100 % of control; under setting [4], 97 % of control; (dose: 400.0 mg/kg/injection, schedule: Q04DX003 (ip), vehicle: Klucel (hydroxypropylcellulose) (HPC)) 99 % of control.
On to `O=NN(CCCl)C(=O)Nc1ccc(Cn2ccc(=O)[nH]c2=O)cc1`, for which the T/C was 164 % of control (dose: 18.0 mg/kg/injection, schedule: Q01DX001 (ip), vehicle: carboxymethylcellulose (CMC)); 185 % of control (dose: 23.0 mg/kg/injection, schedule: Q01DX001 (ip), vehicle: carboxymethylcellulose (CMC)); 152 % of control (dose: 26.0 mg/kg/injection, schedule: Q01DX001 (ip), vehicle: carboxymethylcellulose (CMC)); 189 % of control (dose: 31.0 mg/kg/injection, schedule: Q01DX001 (ip), vehicle: carboxymethylcellulose (CMC)); 178 % of control (dose: 40.0 mg/kg/injection, schedule: Q01DX001 (ip), vehicle: carboxymethylcellulose (CMC)); 179 % of control (dose: 46.0 mg/kg/injection, schedule: Q01DX001 (ip), vehicle: carboxymethylcellulose (CMC)). Moreover, the T/C by setting is: (dose: 60.0 mg/kg/injection, schedule: Q01DX001 (ip), vehicle: carboxymethylcellulose (CMC)) 200 % of control; (dose: 62.0 mg/kg/injection, schedule: Q01DX001 (ip), vehicle: carboxymethylcellulose (CMC)) 167 % of control; (dose: 90.0 mg/kg/injection, schedule: Q01DX001 (ip), vehicle: carboxymethylcellulose (CMC)) 207 % of control; (dose: 125.0 mg/kg/injection, schedule: Q01DX001 (ip), vehicle: carboxymethylcellulose (CMC)) 107 % of control; (dose: 187.0 mg/kg/injection, schedule: Q01DX001 (ip), vehicle: carboxymethylcellulose (CMC)) 93 % of control.
On to `CC(C)CCCBr`, for which the T/C reads like this: (dose: 100.0 mg/kg/injection, schedule: Q01DX009 (ip), vehicle: saline with Tween-80) 101 % of control; (dose: 100.0 mg/kg/injection, schedule: Q04DX003 (ip), vehicle: saline with Tween-80) 94 % of control; (dose: 200.0 mg/kg/injection, schedule: Q01DX009 (ip), vehicle: saline with Tween-80) 100 % of control; (dose: 200.0 mg/kg/injection, schedule: Q04DX003 (ip), vehicle: saline with Tween-80) 95 % of control; (dose: 400.0 mg/kg/injection, schedule: Q01DX009 (ip), vehicle: saline with Tween-80) 94 % of control; (dose: 400.0 mg/kg/injection, schedule: Q04DX003 (ip), vehicle: saline with Tween-80) 99 % of control.
For the compound `Cc1cc(C)c(NC(=O)N(CCCl)N=O)cc1C`, the T/C was 104 % of control (dose: 1.0 mg/kg/injection, schedule: Q01DX009 (ip), vehicle: carboxymethylcellulose (CMC)); 109 % of control (dose: 2.0 mg/kg/injection, schedule: Q01DX009 (ip), vehicle: carboxymethylcellulose (CMC)); 107 % of control (dose: 4.0 mg/kg/injection, schedule: Q01DX009 (ip), vehicle: carboxymethylcellulose (CMC)); 97 % of control (dose: 50.0 mg/kg/injection, schedule: Q01DX001 (ip), vehicle: other); 155 % of control (dose: 88.0 mg/kg/injection, schedule: Q01DX009 (ip), vehicle: carboxymethylcellulose (CMC)); 106 % of control (dose: 100.0 mg/kg/injection, schedule: Q01DX001 (ip), vehicle: other). For the same compound, the T/C runs as follows: (dose: 133.0 mg/kg/injection, schedule: Q01DX009 (ip), vehicle: carboxymethylcellulose (CMC)) 180 % of control; (dose: 200.0 mg/kg/injection, schedule: Q01DX001 (ip), vehicle: other) 100 % of control; (dose: 200.0 mg/kg/injection, schedule: Q01DX009 (ip), vehicle: carboxymethylcellulose (CMC)) 166 % of control.
Consider `CC(C)CC(C=O)(CCN1CCCCC1)c1cccc2ccccc12` (stereo not drawn), for which the T/C is, setting by setting: (dose: 100.0 mg/kg/injection, schedule: Q04DX002 (ip), vehicle: saline with Tween-80) 87 % of control and 88 % of control; (dose: 100.0 mg/kg/injection, schedule: Q04DX002 (ip), vehicle: saline) 98 % of control; (dose: 200.0 mg/kg/injection, schedule: Q04DX002 (ip), vehicle: saline with Tween-80) 94 % of control and 91 % of control; (dose: 200.0 mg/kg/injection, schedule: Q04DX002 (ip), vehicle: saline) 91 % of control; (dose: 400.0 mg/kg/injection, schedule: Q04DX002 (ip), vehicle: saline with Tween-80) 91 % of control.
With `ClC(C[n+]1ccccc1)c1ccccc1` (stereo not drawn), the T/C under setting [9] is 100 % of control.
In the case of `O=NO.[Co].[NH2-].[NH2-].[NH2-].[NH2-].[NH2-]`, the T/C under setting [1] is 101 % of control.
In the case of `Oc1c(-c2ccccn2)cccc1C(F)(F)F`, the T/C is 98 % of control (dose: 12.5 mg/kg/injection, schedule: Q04DX003 (ip), vehicle: Klucel (hydroxypropylcellulose) (HPC)); 102 % of control (dose: 25.0 mg/kg/injection, schedule: Q04DX003 (ip), vehicle: Klucel (hydroxypropylcellulose) (HPC)); 100 % of control under setting [7].
Turning to `Cc1cc(C)c(N(C)C(=O)CCC(=O)O)c(C)c1Br`, the T/C was 97 % of control under setting [10]; 93 % of control under setting [2]; 97 % of control under setting [11]; 93 % of control under setting [3]; 104 % of control under setting [12].
With `CCCN1CCc2cc(OC)c(OC)cc2C1Cc1ccc(OC)c(OC)c1` (stereo not drawn), the T/C (dose: 75.0 mg/kg/injection, schedule: Q01DX001 (ip), vehicle: other) is 109 % of control and the T/C (dose: 150.0 mg/kg/injection, schedule: Q01DX001 (ip), vehicle: other) is 102 % of control.
In the case of `Nc1ccc(S(=O)(=O)NCCO)cc1[N+](=O)[O-]`, the T/C runs as follows: under setting [10], 103 % of control; (dose: 100.0 mg/kg/injection, schedule: Q01DX009 (ip), vehicle: saline sonified) 96 % of control; under setting [11], 106 % of control; (dose: 200.0 mg/kg/injection, schedule: Q01DX009 (ip), vehicle: saline sonified) 102 % of control; under setting [12], 105 % of control; (dose: 400.0 mg/kg/injection, schedule: Q01DX009 (ip), vehicle: saline sonified) 93 % of control.
Consider `O=Cc1ccc2c3c(cccc13)CC2`, for which the T/C under setting [9] is 96 % of control; the T/C (dose: 200.0 mg/kg/injection, schedule: Q01DX001 (ip), vehicle: saline) is 101 % of control; the T/C (dose: 400.0 mg/kg/injection, schedule: Q01DX001 (ip), vehicle: saline) is 100 % of control.
Turning to `CN1C(=O)OC2(CCN(CCCS(=O)(=O)c3ccc(F)cc3)CC2)C1=O`, the T/C by setting is: under setting [10], 92 % of control; under setting [11], 105 % of control; under setting [12], 93 % of control.
On to `Sc1ccccc1.[Pb]`, for which the T/C by setting is: under setting [5], 98 % of control; under setting [6], 101 % of control; under setting [2], 92 % of control and 87 % of control.

For the origin of these results see PubChem BioAssay AID248 (DTP/NCI, 2004).
